Results taken from patent US7438931B2, “Methods and compositions for the treatment of angiogenic diseases” (The Regents of The University of Michigan, priority 1998, dated 2008).
“And” between values parts separate entries of the source, which are not always exact repeats. Equal values may be shown once.

Tests used:
[1] = test system: SUM149 breast cancer cells; experiment: Nude mice with orthotopically injected SUM149 cells; format: in vivo
From the text: In this study, the ability of tetrathiomolybdate (TM) to abrogate or retard the growth of tumors in the mammary pads of nude mice after orthotropic injection of human breast cancer cells was studied. The highly angiogenic inflammatory breast cancer cell line called SUM149 was selected for this study. Given its high propensity to form palpable tumors within 2 weeks of injection into the mammary of 80-100% of the nude mice injected, this cell line posed a stringent test of the ability of TM to impair tumor progression.
Three groups of 5 nude mice each were set up in separate cages. Groups 2 and 3 received TM in the drinking water to average an intake of 1.2 mg/day/mouse, starting at day −7. Groups 1, 2, and 3 were injected on day 0 with 10^6 SUM149 breast cancer cells in the second thoracic mammary fat pad. On day 34, as no palpable tumors were noticeable in any of the mice in the treatment groups, TM was skipped on groups 2 and 3, and then TM was restarted on group 2 at a dose of 0.6 mg/day/mouse, while TM was resumed at full dose (1.2 mg/mouse/day) in group 3.
The developing tumors were measured approximately twice weekly, and the average of the product of the bi-dimensional perpendicular diameters for each group versus time is plotted in FIG. 3. The tumors in the control group grew relatively rapidly and all animals developed tumors. […] This dose decreases copper to approximately 10-20% of baseline levels. It is this degree of copper deficiency, well tolerated in both mice and humans, which appears to be required to inhibit tumor angiogenesis.

[2] = Stability of sucrose-TM complex vs pure TM in open air (OD467); format: physicochemical; conditions: after 3 months of storage in an open dish
Method: An example of such a stabilized thiomolybdate compound is tetrathiomolybdate stabilized by sucrose. To prepare the sucrose-ammonium tetrathiomolybdate complex, 25 grams of sucrose is dissolved in 20 ml of distilled water. 1 gram of ammonium tetrathiomolybdate (TM) is added and the mixture stirred under argon until the TM is solution. The water is then removed from the mixture by flash evaporation under high vacuum.
After 3 months of storage in an open dish, the sucrose powder retained 61% of the original drug as measured by the OD467, while the TM stored under the same conditions retained only 5% of its original OD467.

metastatic solid tumors = experiment: Phase I trial: clinical and radiologic response of metastatic cancer; format: in vivo, human
From the text: Patients with effusions or bone marrow involvement as the only manifestations of disease, and those who had severe intercurrent illness requiring intensive management or were transfusion dependent, were excluded. […] Other requirements were demonstrable progression of disease in the previous 3 months, after standard treatments such as surgery, chemotherapy, radiotherapy, and/or immunotherapy, or progressive disease after declining conventional treatment modalities.
Six patients were to be enrolled at each dose level. After 4 patients were enrolled at level I, if one patient experienced dose-limiting toxicity (DLT) (defined as Hct<80% of baseline), 2 more patients were enrolled at level I. If no DLT was observed, patients were enrolled at the next dose level. Treatment was allowed to continue beyond induction of target copper deficiency, if the patients experienced a partial or complete clinical response or achieved clinical stable disease by the following definitions. Complete response is defined as the disappearance of all clinical and laboratory signs and symptoms of active disease. Partial response is defined as a 50% or greater reduction in the size of measurable lesions defined by the sum of the products of the longest perpendicular diameters of the lesions, with no new lesions or lesions increasing in size. Minor response is defined as a 25-49% reduction in the sum of the products of the longest perpendicular diameters of one or more measurable lesions, no increase in size of any lesions and no new lesions; stable disease is any change in tumor measurements not represented by the criteria for response or progressive disease, which is defined as an increase of 25% or more in the sum of the products of the longest perpendicular diameters of any measurable indicator lesions, compared to the smallest previous measurement or appearance of a new lesion. Because copper deficiency is not a cytotoxic treatment modality, the patients who provide information about the efficacy of TM for long-term therapy, in this population of patients with advanced cancer, are primarily those who remained within the target Cp window of (20±10)% of baseline for over 90 days, without disease progression
Extent of disease was evaluated at entry, at the point of achievement of copper deficiency, defined as Cp at or below 20% of baseline, and every 10-12 weeks thereafter. Computer-assisted tomography or magnetic resonance imaging were used as appropriate for conventional measurement of disease at all known sites and for evaluation of any potential new sites of disease. Angiogenesis-sensitive ultrasound with 3-dimensional Doppler analyses was employed in select cases, as adjunct to conventional imaging, to evaluate the blood flow to the tumors at different time points.
Blood flow was measured by ultrasound in select patients with accessible lesions, at the time they became copper deficient, and at variable intervals of 8-16 weeks thereafter. 3D scanning was performed on a GE Logiq 700 ultrasound system, with the 739L, 7.5 MHz linear array scanhead. The scanning and vascularity quantification techniques were as previously described (Carson et al., 1998; LeCarpentier et al., 1999).

[3] = Target Cp >90 days, + = on therapy

Substance: tetrathiomolybdate [TM]
- palpable tumors ([1]; 1.2 mg/day/mouse in drinking water from day −7): no tumors were palpable until TM was skipped on day 34
- tumor growth after TM skipped on day 34 ([1]; TM restarted at ½ dose (0.6 mg/day/mouse)): the tumors grew more rapidly
- tumor growth after TM skipped on day 34 ([1]; TM resumed at full dose 1.2 mg/day/mouse): only very small tumors have grown
- copper level ([1]; full dose 1.2 mg/day/mouse): 10-20 % of baseline levels
- decrease of copper levels ([1]; ½ dose of TM (0.6 mg/day/mouse)): 50%
- retained % of the original drug as measured by the OD467 [2]: 5%
- duration of stable disease, patient with previously untreated metastatic breast cancer (metastatic solid tumors; TM alone): over 6 months
- No. of Patients: Disease progression (metastatic solid tumors; Target Cp <90 days): 7
- No. of Patients: Stable disease with partial regression of lung lesions (metastatic solid tumors; Target Cp <90 days): 1
- Duration of Cu Deficiency: Stable disease with partial regression of lung lesions (metastatic solid tumors; Target Cp <90 days, + = on therapy): 49+ days
- No. of Patients: Disease progression at one site, stable elsewhere (metastatic solid tumors; Target Cp >90 days): 1/6
- No. of Patients: Stable disease (metastatic solid tumors; Target Cp >90 days): 4/6
- No. of Patients: Stable disease with partial regression of lung lesions (metastatic solid tumors; Target Cp >90 days): 1/6
- Duration of Cu Deficiency: Stable disease, individual patients (metastatic solid tumors; Target Cp >90 days, * = patient discontinued therapy, + = on therapy): 159 days and 329 days and 351 days and 413 days
- Duration of Cu Deficiency (Average): Stable disease (metastatic solid tumors; [3]): 313 days
- Duration of Cu Deficiency: Disease progression at one site, stable elsewhere (metastatic solid tumors; [3]): 120+ days
- Duration of Cu Deficiency: Stable disease with partial regression of lung lesions (metastatic solid tumors; [3]): 120+ days
- disease status, patient with metastatic chondrosarcoma (metastatic solid tumors; long-term therapy): stable disease after 12 months of copper deficiency
- lung lesions in two patients with stable disease (metastatic solid tumors; observation periods at target Cp of 120 and 49 days): complete disappearance of some lung lesions and decrease in size of other lung lesions
- patients with stable disease (metastatic solid tumors; patients copper deficient at the target range for at least 90 days): 5 out of 6 and 5/6
- disease progression after discontinuation of TM therapy (metastatic solid tumors; patients removed from protocol): much more rapid rates of progression of disease
- decrease in blood flow to tumor mass by 3D-ultrasound (metastatic solid tumors; rib metastasis from renal cell carcinoma, approximately 8 weeks after reaching target copper deficiency): 4.4 fold
